In PMC10408569, “Recruitment of hexahydroquinoline as anticancer scaffold targeting inhibition of wild and mutants EGFR (EGFR^WT, EGFR^T790M, and EGFR^L858R)” (Journal of Enzyme Inhibition and Medicinal Chemistry, 2023):

How the values were obtained:
Assay in all cases: NCI-60 anticancer screening (SRB)
Format in all cases: cell-based
DU-145 = conditions: Homo sapiens; DU-145, prostate cancer; one dose 10 μM; read-out: Growth Inhibition Percentage (GI %)
SF-295 = conditions: Homo sapiens; SF-295, CNS cancer; one dose 10 μM; read-out: Growth Inhibition Percentage (GI %)
HCT-116 = conditions: Homo sapiens; HCT-116, colon cancer; one dose 10 μM; read-out: Growth Inhibition Percentage (GI %)
RXF 393 = conditions: Homo sapiens; RXF 393, renal cancer; one dose 10 μM; read-out: Growth Inhibition Percentage (GI %)
LOX IMVI = conditions: Homo sapiens, melanoma, one dose 10 μM, read-out: Growth Inhibition Percentage (GI %)
NCI-H226 = conditions: Homo sapiens; NCI-H226, NSC lung cancer; one dose 10 μM; read-out: Growth Inhibition Percentage (GI %)
TK-10 = conditions: Homo sapiens; TK-10, renal cancer; one dose 10 μM; read-out: Growth Inhibition Percentage (GI %)
NCI-H322M = conditions: Homo sapiens, NSC lung cancer, one dose 10 μM, read-out: Growth Inhibition Percentage (GI %)
NCI-H522 = conditions: Homo sapiens; NCI-H522, NSC lung cancer; one dose 10 μM; read-out: Growth Inhibition Percentage (GI %)
SF-539 = conditions: Homo sapiens; SF-539, CNS cancer; one dose 10 μM; read-out: Growth Inhibition Percentage (GI %)
NCI/ADR-RES = conditions: Homo sapiens, ovarian cancer, one dose 10 μM, read-out: Growth Inhibition Percentage (GI %)
MDA-MB-468 = conditions: Homo sapiens; MDA-MB-468, breast cancer; one dose 10 μM; read-out: Growth Inhibition Percentage (GI %)
OVCAR-3 = conditions: Homo sapiens; OVCAR-3, ovarian cancer; one dose 10 μM; read-out: Growth Inhibition Percentage (GI %)
COLO 205 = conditions: Homo sapiens; COLO 205, colon cancer; one dose 10 μM; read-out: Growth Inhibition Percentage (GI %)
UO-31 = conditions: Homo sapiens; UO-31, renal cancer; one dose 10 μM; read-out: Growth Inhibition Percentage (GI %)
RPMI-8226 = conditions: Homo sapiens; RPMI-8226, leukemia; one dose 10 μM; read-out: Growth Inhibition Percentage (GI %)
BT-549 = conditions: Homo sapiens; BT-549, breast cancer; one dose 10 μM; read-out: Growth Inhibition Percentage (GI %)
HS 578T = conditions: Homo sapiens; HS 578T, breast cancer; one dose 10 μM; read-out: Growth Inhibition Percentage (GI %)
CCRF-CEM = conditions: Homo sapiens, leukemia, one dose 10 μM, read-out: Growth Inhibition Percentage (GI %)
ACHN = conditions: Homo sapiens, renal cancer, one dose 10 μM, read-out: Growth Inhibition Percentage (GI %)
SK-MEL-2 = conditions: Homo sapiens; SK-MEL-2, melanoma; one dose 10 μM; read-out: Growth Inhibition Percentage (GI %)
SNB-19 = conditions: Homo sapiens; SNB-19, CNS cancer; one dose 10 μM; read-out: Growth Inhibition Percentage (GI %)
SN 12C = conditions: Homo sapiens, SN12C; SN 12C, renal cancer; one dose 10 μM; read-out: Growth Inhibition Percentage (GI %)
SF-268 = conditions: Homo sapiens; SF-268, CNS cancer; one dose 10 μM; read-out: Growth Inhibition Percentage (GI %)
U251 = conditions: Homo sapiens, U-251; U251, CNS cancer; one dose 10 μM; read-out: Growth Inhibition Percentage (GI %)
MCF7 = conditions: Homo sapiens; MCF7, breast cancer; one dose 10 μM; read-out: Growth Inhibition Percentage (GI %)
OVCAR-5 = conditions: Homo sapiens; OVCAR-5, ovarian cancer; one dose 10 μM; read-out: Growth Inhibition Percentage (GI %)
HCC-2998 = conditions: Homo sapiens; HCC-2998, colon cancer; one dose 10 μM; read-out: Growth Inhibition Percentage (GI %)

Row | Structure (SMILES) | inhibition at 10 µM (DU-145) | inhibition at 10 µM (SF-295) | inhibition at 10 µM (HCT-116) | inhibition at 10 µM (RXF 393) | inhibition at 10 µM (LOX IMVI) | inhibition at 10 µM (NCI-H226) | inhibition at 10 µM (TK-10) | inhibition at 10 µM (NCI-H322M) | inhibition at 10 µM (NCI-H522) | inhibition at 10 µM (SF-539) | inhibition at 10 µM (NCI/ADR-RES) | inhibition at 10 µM (MDA-MB-468) | inhibition at 10 µM (OVCAR-3) | inhibition at 10 µM (COLO 205) | inhibition at 10 µM (UO-31) | inhibition at 10 µM (RPMI-8226) | inhibition at 10 µM (BT-549) | inhibition at 10 µM (HS 578T) | inhibition at 10 µM (CCRF-CEM) | inhibition at 10 µM (ACHN) | also measured
1 | CCOC(=O)C1=C(N)N(c2ccc(Cl)cc2)C2=C(C(=O)CC(C)(C)C2)C1c1ccc([N+](=O)[O-])cc1 (racemic) [8k, (±)-Ethyl2-amino-1–(4-chlorophenyl)-7,7-dimethyl-4–(4-nitrophenyl)-5-oxo-1,4,5,6,7,8-hexahydroquinoline-3-carboxylate] | < 10% | < 10% | 34% | < 10% | 21% | 15% | < 10% | < 10% | 27% | < 10% | 16% | 18% | < 10% | < 10% | 32% | 43% | < 10% | < 10% | < 10% | 12% | inhibition at 10 µM (SK-MEL-2): 19%; inhibition at 10 µM (SNB-19): < 10%; inhibition at 10 µM (SN 12C): < 10%; inhibition at 10 µM (SF-268): < 10%; inhibition at 10 µM (U251): < 10%; inhibition at 10 µM (MCF7): 19%; inhibition at 10 µM (OVCAR-5): < 10%; inhibition at 10 µM (HCC-2998): < 10%
2 | CCOC(=O)C1=C(N)N(c2ccccc2)C2=C(C(=O)CC(C)(C)C2)C1c1ccc(N2CCOCC2)cc1 (racemic) [8l, (±)-Ethyl 2-amino-7,7-dimethyl-4-[4-(morpholin-4-yl)phenyl]-5-oxo-1-phenyl-1,4,5,6,7,8-hexahydroquinoline-3-carboxylate] | < 10% | < 10% | < 10% | < 10% | < 10% | < 10% | < 10% | < 10% | 11% | < 10% | < 10% | < 10% | < 10% | < 10% | < 10% | < 10% | < 10% | < 10% | < 10% | < 10% | inhibition at 10 µM (SK-MEL-2): < 10%; inhibition at 10 µM (SNB-19): < 10%; inhibition at 10 µM (SN 12C): < 10%; inhibition at 10 µM (SF-268): < 10%; inhibition at 10 µM (U251): < 10%; inhibition at 10 µM (MCF7): < 10%; inhibition at 10 µM (OVCAR-5): < 10%; inhibition at 10 µM (HCC-2998): < 10%
3 | CCOC(=O)C1=C(N)N(c2ccc(Cl)cc2)C2=C(C(=O)CC(C)(C)C2)C1c1ccc(N2CCOCC2)cc1 (racemic) [8m, (±)-Ethyl 2-amino-1–(4-chlorophenyl)-7,7-dimethyl-4-[4-(morpholin-4-yl)phenyl]-5-oxo-1,4,5,6,7,8-hexahydroquinoline-3-carboxylate] | < 10% | 11% | < 10% | < 10% | < 10% | < 10% | < 10% | < 10% | 11% | < 10% | < 10% | 16% | < 10% | < 10% | 15% | < 10% | 76% | < 10% | < 10% | < 10% | inhibition at 10 µM (SK-MEL-2): < 10%; inhibition at 10 µM (SNB-19): < 10%; inhibition at 10 µM (SN 12C): < 10%; inhibition at 10 µM (SF-268): < 10%; inhibition at 10 µM (U251): 12%; inhibition at 10 µM (MCF7): < 10%; inhibition at 10 µM (OVCAR-5): < 10%; inhibition at 10 µM (HCC-2998): < 10%
4 | CCOC(=O)C1=C(N)N(c2ccccc2)C2=C(C(=O)CC(C)(C)C2)C1c1ccccn1 (racemic) [12a, (±)-Ethyl 2-amino-7,7-dimethyl-5-oxo-1-phenyl-4-(pyridin-2-yl)-1,4,5,6,7,8-hexahydroquinoline-3-carboxylate] | < 10% | < 10% | < 10% | < 10% | < 10% | < 10% | < 10% | < 10% | 11% | < 10% | < 10% | < 10% | < 10% | < 10% | < 10% | < 10% | < 10% | < 10% | < 10% | < 10% | inhibition at 10 µM (SK-MEL-2): < 10%; inhibition at 10 µM (SNB-19): < 10%; inhibition at 10 µM (SN 12C): < 10%; inhibition at 10 µM (SF-268): < 10%; inhibition at 10 µM (U251): < 10%; inhibition at 10 µM (MCF7): < 10%; inhibition at 10 µM (OVCAR-5): < 10%; inhibition at 10 µM (HCC-2998): < 10%
5 | CCOC(=O)C1=C(N)N(c2ccc(C)cc2)C2=C(C(=O)CC(C)(C)C2)C1c1ccccn1 (racemic) [12b, (±)-Ethyl 2-amino-7,7-dimethyl-1–(4-methylphenyl)-5-oxo-1-phenyl-4-(pyrdin-2-yl)-1,4,5,6,7,8-hexahydroquinoline-3-carboxylate] | < 10% | < 10% | < 10% | < 10% | < 10% | < 10% | < 10% | < 10% | < 10% | < 10% | < 10% | 82% | < 10% | < 10% | 23% | < 10% | 30% | < 10% | < 10% | < 10% | inhibition at 10 µM (SK-MEL-2): < 10%; inhibition at 10 µM (SNB-19): < 10%; inhibition at 10 µM (SN 12C): < 10%; inhibition at 10 µM (SF-268): 14%; inhibition at 10 µM (U251): < 10%; inhibition at 10 µM (MCF7): 12%; inhibition at 10 µM (OVCAR-5): < 10%; inhibition at 10 µM (HCC-2998): < 10%
